Source: ChEMBL document CHEMBL4421728, “Bach1 Inhibitors in Combination with Nrf2 Activators and Pharmaceutical Compositions Thereof” (2017)

Tests used:
[1] = target: T1, Transcription regulator protein BACH1 (Homo sapiens) (UniProt O14867); assay: Inhibition of Bach1 in normal human lung fibroblasts assessed as induction of HMOX protein expression at 0.039 uM incubated for 16 to 18 hrs by immunostaining relative to control
T1 sequence (whole entry): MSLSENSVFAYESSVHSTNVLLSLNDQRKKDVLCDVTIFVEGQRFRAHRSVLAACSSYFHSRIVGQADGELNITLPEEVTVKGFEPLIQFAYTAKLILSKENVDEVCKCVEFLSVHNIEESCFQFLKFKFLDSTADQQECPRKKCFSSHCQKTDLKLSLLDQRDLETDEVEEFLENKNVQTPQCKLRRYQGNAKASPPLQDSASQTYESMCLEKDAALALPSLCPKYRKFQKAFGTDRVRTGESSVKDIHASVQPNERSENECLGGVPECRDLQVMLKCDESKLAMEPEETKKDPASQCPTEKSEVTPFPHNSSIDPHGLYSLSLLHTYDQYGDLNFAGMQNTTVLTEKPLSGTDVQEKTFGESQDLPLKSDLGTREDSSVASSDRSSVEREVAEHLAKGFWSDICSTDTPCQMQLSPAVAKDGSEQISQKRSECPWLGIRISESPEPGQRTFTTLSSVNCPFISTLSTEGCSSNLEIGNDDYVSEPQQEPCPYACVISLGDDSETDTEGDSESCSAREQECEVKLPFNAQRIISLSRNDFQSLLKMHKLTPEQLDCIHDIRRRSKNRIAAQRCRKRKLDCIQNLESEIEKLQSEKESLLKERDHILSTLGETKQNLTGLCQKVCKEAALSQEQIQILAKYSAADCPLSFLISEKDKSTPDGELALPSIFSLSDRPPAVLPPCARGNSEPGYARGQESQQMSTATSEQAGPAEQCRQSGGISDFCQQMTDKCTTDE

[2] = target: T1, Transcription regulator protein BACH1 (Homo sapiens); assay: Inhibition of Bach1 in normal human lung fibroblasts assessed as induction of HMOX protein expression at 0.156 uM incubated for 16 to 18 hrs by immunostaining relative to control
[3] = target: T1, Transcription regulator protein BACH1 (Homo sapiens); assay: Inhibition of Bach1 in normal human lung fibroblasts assessed as induction of HMOX protein expression by measuring HMOX positive cells level at 0.156 uM incubated for 16 to 18 hrs by immunostaining relative to control DMSO; set-up: scale not given: the % may be the effect or the level left
[4] = target: T1, Transcription regulator protein BACH1 (Homo sapiens); assay: Inhibition of Bach1 in normal human lung fibroblasts assessed as induction of HMOX protein expression by measuring HMOX positive cells level at 0.156 uM in presence of 0.03 uM Nrf2 activator DMF incubated for 16 to 18 hrs by immunostaining relative to control DMSO; set-up: scale not given: the % may be the effect or the level left
[5] = target: T1, Transcription regulator protein BACH1 (Homo sapiens); assay: Inhibition of Bach1 in normal human lung fibroblasts assessed as induction of HMOX protein expression by measuring HMOX positive cells level at 0.156 uM in presence of 0.1 uM Nrf2 activator DMF incubated for 16 to 18 hrs by immunostaining relative to control DMSO; set-up: scale not given: the % may be the effect or the level left
[6] = target: T1, Transcription regulator protein BACH1 (Homo sapiens); assay: Inhibition of Bach1 in normal human lung fibroblasts assessed as induction of HMOX protein expression by measuring HMOX positive cells level at 0.039 uM in presence of 3 uM Nrf2 activator DMF incubated for 16 to 18 hrs by immunostaining relative to control DMSO; set-up: scale not given: the % may be the effect or the level left
[7] = target: T1, Transcription regulator protein BACH1 (Homo sapiens); assay: Inhibition of Bach1 in normal human lung fibroblasts assessed as induction of HMOX protein expression by measuring HMOX positive cells level at 0.156 uM in presence of 3 uM Nrf2 activator DMF incubated for 16 to 18 hrs by immunostaining relative to control DMSO; set-up: scale not given: the % may be the effect or the level left
[8] = target: T1, Transcription regulator protein BACH1 (Homo sapiens); assay: Inhibition of Bach1 in normal human lung fibroblasts assessed as induction of HMOX protein expression by measuring HMOX positive cells level at 0.078 uM in presence of 10 uM Nrf2 activator DMF incubated for 16 to 18 hrs by immunostaining relative to control DMSO; set-up: scale not given: the % may be the effect or the level left
[9] = target: T1, Transcription regulator protein BACH1 (Homo sapiens); assay: Inhibition of Bach1 in normal human lung fibroblasts assessed as induction of HMOX protein expression by measuring HMOX positive cells level at 0.019 uM in presence of 30 uM Nrf2 activator DMF incubated for 16 to 18 hrs by immunostaining relative to control DMSO; set-up: scale not given: the % may be the effect or the level left
[10] = target: T1, Transcription regulator protein BACH1 (Homo sapiens); assay: Inhibition of Bach1 in normal human lung fibroblasts assessed as induction of HMOX protein expression by measuring HMOX positive cells level at 0.039 uM in presence of 30 uM Nrf2 activator DMF incubated for 16 to 18 hrs by immunostaining relative to control DMSO; set-up: scale not given: the % may be the effect or the level left
[11] = target: T1, Transcription regulator protein BACH1 (Homo sapiens); assay: Inhibition of Bach1 in normal human lung fibroblasts assessed as induction of HMOX protein expression by measuring HMOX positive cells level at 0.078 uM in presence of 30 uM Nrf2 activator DMF incubated for 16 to 18 hrs by immunostaining relative to control DMSO; set-up: scale not given: the % may be the effect or the level left
[12] = target: T1, Transcription regulator protein BACH1 (Homo sapiens); assay: Inhibition of Bach1 in normal human lung fibroblasts assessed as induction of HMOX protein expression at 0.039 uM in presence of 0.03 uM Nrf2 activator DMF incubated for 16 to 18 hrs by immunostaining relative to control
[13] = target: T1, Transcription regulator protein BACH1 (Homo sapiens); assay: Inhibition of Bach1 in normal human lung fibroblasts assessed as induction of HMOX protein expression at 0.019 uM in presence of 0.1 uM Nrf2 activator DMF incubated for 16 to 18 hrs by immunostaining relative to control
[14] = target: T1, Transcription regulator protein BACH1 (Homo sapiens); assay: Inhibition of Bach1 in normal human lung fibroblasts assessed as induction of HMOX protein expression at 0.019 uM in presence of 0.3 uM Nrf2 activator DMF incubated for 16 to 18 hrs by immunostaining relative to control
[15] = target: T1, Transcription regulator protein BACH1 (Homo sapiens); assay: Inhibition of Bach1 in normal human lung fibroblasts assessed as induction of HMOX protein expression at 0.078 uM in presence of 0.3 uM Nrf2 activator DMF incubated for 16 to 18 hrs by immunostaining relative to control
[16] = target: T1, Transcription regulator protein BACH1 (Homo sapiens); assay: Inhibition of Bach1 in normal human lung fibroblasts assessed as induction of HMOX protein expression at 0.039 uM in presence of 1 uM Nrf2 activator DMF incubated for 16 to 18 hrs by immunostaining relative to control
[17] = target: T1, Transcription regulator protein BACH1 (Homo sapiens); assay: Inhibition of Bach1 in normal human lung fibroblasts assessed as induction of HMOX protein expression at 0.156 uM in presence of 1 uM Nrf2 activator DMF incubated for 16 to 18 hrs by immunostaining relative to control
[18] = target: T1, Transcription regulator protein BACH1 (Homo sapiens); assay: Inhibition of Bach1 in normal human lung fibroblasts assessed as induction of HMOX protein expression at 0.156 uM in presence of 3 uM Nrf2 activator DMF incubated for 16 to 18 hrs by immunostaining relative to control
[19] = target: T1, Transcription regulator protein BACH1 (Homo sapiens); assay: Inhibition of Bach1 in normal human lung fibroblasts assessed as induction of HMOX protein expression at 0.156 uM in presence of 10 uM Nrf2 activator DMF incubated for 16 to 18 hrs by immunostaining relative to control
[20] = target: T1, Transcription regulator protein BACH1 (Homo sapiens); assay: Inhibition of Bach1 in normal human lung fibroblasts assessed as induction of HMOX protein expression at 0.039 uM in presence of 30 uM Nrf2 activator DMF incubated for 16 to 18 hrs by immunostaining relative to control

Structure (SMILES)	fold change (FC) [1]	fold change (FC) [2]	Activity [3] [%]	Activity [4] [%]	Activity [5] [%]	Activity [6] [%]	Activity [7] [%]	Activity [8] [%]	Activity [9] [%]	Activity [10] [%]	Activity [11] [%]	fold change (FC) [12]	fold change (FC) [13]	fold change (FC) [14]	fold change (FC) [15]	fold change (FC) [16]	fold change (FC) [17]	fold change (FC) [18]	fold change (FC) [19]	fold change (FC) [20]
CNC(=O)c1ccc2c(c1)nc(Nc1nc3ccc(OC(F)(F)F)cc3s1)n2C	1.09	3.46																		
Cn1c(Nc2nc3ccc(C(F)(F)F)cc3s2)nc2cc(C(=O)NCCOCCO)ccc21	2.51	6.46	96.3	92.5	88.2	78.7	99.2	97.7	84	91.9	91.3	1.81	1.23	1.44	3.21	2.6	6.04	7.69	7.5	5.52
CN(C)C(=O)CNC(=O)c1ccc2c(c1)nc(Nc1nc3ccc(C(F)(F)F)cc3s1)n2C	1.37	2.66	28.6	22.1	33.1	68	89	97.2	84.2	90.4	96.2	1.28	1.15	1.24	1.73	2.1	4.08	4.57	6.55	4.9
COCCNC(=O)c1cnc2c(c1)nc(Nc1nc3ccc(OC(F)(F)F)cc3s1)n2C	1.45	1.96	11.3	8.51	18.5	75.8	79.6	94.5	84.9	87.5	86.8	1.07	1.13	1.43	1.43	1.97	2.87	3.63	5.58	4.82
